Patent US11453642B2, “Oxygenated amino- or ammonium-containing sulfonic acid, phosphonic acid and carboxylic acid derivatives and their medical use” (GRI BIO, INC., priority 2011, dated 2022)
Where “and” joins values, the source holds several entries; their conditions need not be identical. Equal entries are not always repeated. Where two headings read alike, the source gives them in different places. Marks after values point to notes of the source that are not given here.

Columns and labels:
[1] = system: RBL-2H3 cells; assay: Maximum tolerated concentration (cytotoxicity by lactate dehydrogenase release); assay type: cell-based, Rat
Description: The safety index (SI) of a test compound is the ratio between the maximum tolerated concentration and the IC50 and is used as a measure of the relative safety of the test compound.

[2] = system: allergic contact dermatitis response in mice; assay: Allergic contact dermatitis (TDI) model in mice, mouse ear swelling test; assay type: in vivo
Experimental: The anti-inflammatory and anti-allergic effects of compounds 1a and 1c were assessed in a mouse model of allergic contact dermatitis, a response driven primarily by T helper type 2 (Th2) cells. […] In this model, an allergic dermatitis response is obtained by sensitizing mice to TDI and subsequently challenging them with antigen by topical administration onto the ears. A quantitative assessment of anti-inflammatory and anti-allergic effects of topically or orally administered test compounds is possible by measuring the resulting ear swelling. The advantages of the allergic contact dermatitis model (Zöllner et al., Bioessays 26:693-6 (2004)) are reproducibility and reliability (>90% of BALB/c mice respond to sensitization), a short induction protocol, quantitative assessment by measuring ear thickness, atopic dermatitis-like skin lesions can be induced, and clinically relevant pharmaceuticals, such as corticosteroids, calcineurin-inhibitors and PDE4-inhibitors, are effective in this model.
Female BALB/c-mice were obtained from Charles River (Sulzfeld, Germany) at age 8 weeks. All animals were housed in groups of eight per cage at 22° C. with a 12 h light/dark-cycle, Water and a standard diet (Altromin, Lage/Lippe, Germany) were available ad libitum. All animals were acclimatized for one week before experimental procedures were commenced.
Experimental procedures for BALB/c mice housing, TDI sensitization and challenge, and measurement of ear thickness were performed as previously described (Baumer et al., J Pharm Pharmacol, 55:1107-1114 (2003)) with the following modifications. For active sensitization, 100 μL of 5% (w/v) TDI was administered to the shaved and stripped abdominal epidermis on day one, and for the next three consecutive days, 50 μL of 5% (My) TDI was applied. The allergic reaction was boosted 21 days later by application of 50 μL of 0.5% (w/v) TDI. For the examination of test compound effects, the left ears were used for the TDI challenge (20 μL of 0.5% in acetone) and ear thickness measured 3 h before and 24 h after challenge.
Group size was n=7 mice unless otherwise stated. Test compounds were freshly prepared before administration.
Administration time: to determine optimal time for administration treatment groups were treated orally by gavage with 100 mg/kg of compound 1a or 1c (suspended in 0.5% tylose, 10 mL/kg) 1, 4 or 16 h before topical TDI challenge. One group was treated with 100 mg/kg miltefosine orally, 16 h before challenge (based on available data for optimal administration time for miltefosine) and vehicle treated mice received tylose (10 mL/kg) orally, 4 h before challenge.
Dose-response: two groups of mice were treated orally with compound 1a at 25 mg/kg or 100 mg/kg suspended in 0.5% tylose, 4 h before topical TDI challenge. Vehicle treated mice received 0.5% tylose orally 4 h before challenge. As a positive control, dexamethasone was administered in saline solution at 1 mg/kg or 3 mg/kg, 2 h and 30 min before challenge and 1 h after challenge. The dose and dosing scheme for dexamethasone was based on previous experience showing a maximal effect in this model.
Compound 1a was administered to two groups of mice topically in 20 μl of a 2% or 6% solution in propyleneglycol. The suspension was heated to 60° C. and mixed using a thermomixer (Eppendorf) until it became clear. The solution was applied, 2 h before topical TDI challenge by administration of 10 μl onto each of the inner and outer surfaces of the left ears. A vehicle group (17=5) was treated with propyleneglycol. As a positive control, diflorasone, diacetate was administered at 0.01% (low dose) and 0.05% (high dose) in 20 μl acetone, 2 h before challenge. A basal control group was left untreated.
Mean and standard error of the mean (SEM) were calculated from individual ear edema values. […]

[3] = system: RBL-2H3 cells; assay: Inhibition of mast cell degranulation (β-hexosaminidase release); assay type: cell-based; conditions: Rattus norvegicus, IgE-sensitized RBL-2H3 cells, 1 h with compound, antigen (DNP-HSA) 15 min
Description: Mast cells are key effector cells involved in allergic and inflammatory diseases, and the Rat Basophilic Leukemia clone 2H3 (RBL-2H3) cell line is a commonly used model of allergen dependent immune modulator release (degranulation) in mast cells. On their surface, they express the high affinity receptor for IgE (FcεRI). Upon binding of antigen-specific IgE to the receptor, cells become sensitized to the IgE specific antigen (allergen). When IgE-sensitized cells then encounter multivalent antigen, the antigen clusters IgE-FcεRI complexes and initiates a signal transduction cascade that leads to degranulation, that is, the release of inflammatory mediators, such as cytokines, eicosanoids, histamine and enzymes. The assay can be used as a screening method to identify immune-modulating compounds, in particular compounds useful in the medical management of allergic and inflammatory diseases and asthma, β-hexosaminidase was previously shown to be released with the same kinetics as histamine (Schwartz et al., J Immunology; 123:1445-1450 (1979)), thus offering a simple means to monitor degranulation. […]
MUG substrate solution, 100 μl, were added to supernatant and lysate samples and plates were incubated 30 min at 37° C. […] Fluorescence was measured at 365 nm excitation and 440 nm emission wavelengths. […]

[4] = system: collagen type II-induced arthritis (CIA); conditions: mouse, in vivo
[5] = system: DTH response in mice; assay type: in vivo; conditions: for Inhibition of mouse ear swelling: DTH, 24 h after challenge
Experimental: The anti-inflammatory and anti-allergic effects of compounds 1a and 1c were assessed in a mouse model of skin delayed-type hypersensitivity (DTH) reactions and compared to a vehicle control and to the reference drug dexamethasone. DTH reactions are antigen-specific cell-mediated immune responses, driven primarily by T helper type 1 (Th1) cells, similar to the tuberculin immunization response. The immune reaction induced by an ovalbumin challenge to animals previously sensitized with ovalbumin in Complete Freund's Adjuvant, is characterized by swelling (edema) at the site of challenge, e.g. the mouse ear. Dexamethasone, an anti-inflammatory steroid, reduces cell-mediated immune responses and was employed to validate the responsiveness of the assay to pharmacological treatment.
Female BALB/cJW mice were bred at the University of Lodz, Lodz, Poland and housed in groups of 8 in makrolon cages with a 12 h light-dark cycle. Mice were given free access to food (Agropol S.j., Motycz, Poland) and water.
Sensitization: The protein antigen, ovalbumin, was reconstituted in PBS at 4 mg/ml. An ovalbumin-CFA emulsion was prepared by mixing the protein solution with the CFA suspension at a ratio of 1:1, using two Luer-lock syringes. The emulsion was tested by putting a drop of emulsion onto PBS; if the emulsion remained as a tight droplet on the PBS, the emulsion was deemed ready. Mice were sensitized by subcutaneously injecting 25 μL of emulsion into each side of the tail (100 μg ovalbumin per mouse).
Challenge: On the sixth day after sensitization, DTH was elicited by challenging animals subcutaneously (gauge 30 needle, B. Braun Melsungen, Melsungen, Germany) in the left ears with 10 μL of a 1% suspension of heat-aggregated ovalbumin (HOVA) (100 μg ovalbumin per mouse). The right ears were administered subcutaneously with PBS and served to determine the individual differences in ear thicknesses. HOVA was prepared by heating a 5% solution of ovalbumin in saline for 1 h at 80° C. with occasional swirling. After cooling to room temperature and centrifugation (400 g. 10 min at 4° C.), the pellet was washed twice with saline, resuspended at 2% in PBS and aliquots stored at −30° C. Before injection, HOVA was diluted with an equal volume of PBS and sonicated. Ear thickness was measured with a precise spring-loaded caliper (Art. No. 7309, Mitutoyo, Kawasaki, Japan) before challenge, and 24 h after challenge.
Sensitization, challenge and ear thickness measurement were performed under anesthesia (ketamine 80 mg/kg plus xylazine 8 mg/kg, intraperitoneally).
The anti-inflammatory effects of compounds 1a and 1c were compared to a vehicle control (0.5% methyl cellulose solution) and to the reference drug, dexamethasone. Test compounds were given at 25 or 100 mg/kg orally by gavage (Art. No. 432093, Harvard Apparatus GmbH, March-Hugstetten, Germany) 16 h and 3 h before sensitization and then twice daily with the final dose given 3 h prior to ear challenge (a total of 14 administrations). Dexamethasone was given at 0.1 or 1 mg/kg orally by gavage 3 h before sensitization and once daily with the final dose given 3 h prior to antigen challenge (a total of 7 administrations). All administrations were given in a volume of 10 ml/kg.
To account for individual variability, the increase in right ear thickness, before and 24 h after administration of PBS, was subtracted from the HOVA-induced increase in left ear thickness. The increase in ear thickness was calculated by the difference between ear thickness before and 24 h after antigen challenge. Percent inhibition of ear swelling was calculated according to the following formula: % inhibition=100×(IETvehicle−IETcompound)/IETvehicle where IET=(ET24 hrs pc−ETpredose)HOVA-treated ears−(ET24 hrs pc−ETpredose)PBS-treated ears • (IET, increase ear thickness; ET, ear thickness; pc, post challenge)
Mean and standard deviation (SD) were calculated from individual ear edema values. […]

spleen and thymus weights [4]	Structure (SMILES)	MTC (maximum tolerated concentration) ([1]; highest concentration not causing cytotoxicity (LDH release), RBL-2H3 cells) [µM]	SI (safety index) ([1]; ratio between MTC and IC50)	inhibitory efficacy relative to that of 1a at its optimal administration time of 4 h ([2]; 100 mg/kg oral, 16 h before challenge vs 1a 4 h) [%]	inhibitory efficacy relative to that of compound 1c at its optimal administration time of 4 h ([2]; 100 mg/kg oral, 16 h before challenge vs 1c 4 h) [%]	Inhibition of mouse ear swelling ([2]; administration time study, 100 mg/kg oral, 16 h before TDI challenge)	IC50 [3] [µM]	Inhibition of mouse ear swelling ([2]; dose-response study, 1 mg/kg, 2 h and 30 min before and 1 h after challenge)	Inhibition of mouse ear swelling ([2]; dose-response study, 1 mg/kg, 2 h and 30 min before and 1 h after challenge, listed as dexamethasone) [%]	Inhibition of mouse ear swelling ([2]; dose-response study, 3 mg/kg, 2 h and 30 min before and 1 h after challenge)	Inhibition of mouse ear swelling ([2]; dose-response study, 3 mg/kg, 2 h and 30 min before and 1 h after challenge, listed as dexamethasone) [%]	Inhibition of mouse ear swelling ([5]; 0.1 mg/kg orally once daily (7 administrations)) [%]	Inhibition of mouse ear swelling ([5]; 1.0 mg/kg orally once daily (7 administrations)) [%]	loss in body weight ([5]; mouse, in vivo, po, 1 mg/kg) [%]
	CCCCCCCCCCCCCCCCOP(=O)([O-])OCC[N+](C)(C)C [Miltefosine, reference compound]	25	6.0	64	69	47% and 47.3^§ %	4.2							
markedly reduced	C[C@@H]1C[C@H]2[C@@H]3CCC4=CC(=O)C=C[C@]4(C)[C@@]3(F)[C@@H](O)C[C@]2(C)[C@@]1(O)C(=O)CO [Dexamethasone, reference compound]							78.6*** %	78	87.1*** %	87	14	53	9
